Among the data in the OligoGym collection are remaining target (mRNA or protein) (fraction of control) values, retold here.

These antisense oligonucleotides have a phosphorothioate backbone; sugars and methylation of C are not fully specified.
Note: test concentration or dose not given here.

The conditions of the data set: ASO.
The sequence CTTTGTTTCGGTTGCTGC registered a remaining target (mRNA or protein) (fraction of control) of 0.64.
With ATTTCACTGTAAACGGCT the figure was 0.81.
With AGGAGGCAGTACTGGAGTCT the figure was 0.7; with AATCTTTAATTTCAGCCC, at least 1; with AGCTCGCGCGAACCCCTA, at least 1.
With AGTAGGTTTTGGTGGTTT the figure was at least 1; with CCTCCGCCCTCTCTTGCC, 0.8.
For TTATAAGCCAAAGTGCGT, the remaining target (mRNA or protein) (fraction of control) is at least 1.
With AGGGAGGCTGCCTTTTCC the figure was 0.63; with CCTTCAGCAAAACAAAAC, 0.76; with ATCCTTTGTATTTCTTTC, 0.85.
Turning to CCACTAGAGTGCGCCAGA, the remaining target (mRNA or protein) (fraction of control) is at least 1.
Under TTCAAGTCTTCTTCCAAT stands 0.85; under CCTAGCAGTCTCTTCACTGC, 0.74; under ATTTCCTGGGATGTGCGG, 0.48.
With CGTGTTGATAGTTGCAGTTC the figure was at least 1; with CCCGCACGTCCTTGAAGA, 0.27; with AAATAGGTAGCCAGGTGG, 0.99.
Under CAAAACCTAAATCCCTGG stands at least 1; under TCCCAGGGTGTGCGTCAC, at least 1.
GTCCAGCCACTGCAGTGGCC registered a remaining target (mRNA or protein) (fraction of control) of 0.82.
With TGCTTGTGGGCCGCGATT the figure was 0.24; with GTCCCTGCACCCCTAGTC, at least 1; with ACATTGAGGGAGTCGTTG, at least 1.
TAAGAGGCCACAGCAGGCTC showed a remaining target (mRNA or protein) (fraction of control) of 0.42.
Under TTCTGGCACTTTCTATGA stands 0.72; under AGAGGCAGAGAAGAGAGC, 0.93; under CCTCCACAGCCACTGCAT, 0.97.
Under GGTGGTGGAGTGCATAAGAG stands 0.98.
With AAGGTTAAGATGCAGCAT the figure was 0.55.
For the sequence AAGACAATGTGGAATCGG, the remaining target (mRNA or protein) (fraction of control) is at least 1.
With GAGTTGGTAGCCTCCGTT the figure was at least 1.
With GGCTGCGGAGCACGTCCT the figure was 0.54; with GATCTTGCAGACGGTAGCTG, 0.3; with TGCTGTCACTCACGCACTCG, 0.57.
On to ATCTTCTTCTCTTTCCTT, for which the remaining target (mRNA or protein) (fraction of control) was at least 1.
CCAAAGAGCTGCTGGGAA displayed a remaining target (mRNA or protein) (fraction of control) of at least 1.
Under CTCATAGCAGGCCCGGAT stands 0.44.
GCATCTGCTTGATGAAGG returned a remaining target (mRNA or protein) (fraction of control) of at least 1.
Take GTGGTTGCGTGCCGATTCAC: the remaining target (mRNA or protein) (fraction of control) was 0.5.
With AAATGGCCGTTTTGCTCC the figure was at least 1; with CCACCACTACAGAGCAGG, at least 1; with CACCCTGGCATCCCAAAT, 0.13.
Under AATTCTGCCAGGTTGCTG stands at least 1; under CGCCCGGCGGCTCTTTCT, at least 1.
Under CTGCTTCTTCTGCTCCAA stands 0.57.
In turn, ATCCCCTGATTTCTTCAC had a remaining target (mRNA or protein) (fraction of control) of 0.53.
The sequence CTCATCCGGATAGTACACAT had a remaining target (mRNA or protein) (fraction of control) of 0.64.
AAGTCCAAGACAGAATCTGT came in with a remaining target (mRNA or protein) (fraction of control) of 0.46.
Take AGCGCCACACGCGACAGTAA: the remaining target (mRNA or protein) (fraction of control) was 0.56.
Turning to CCCGGGCAGCTGAGAGCCCT, the remaining target (mRNA or protein) (fraction of control) stood at 0.72.
Under CTCCGGCGCGCACGGGAACC stands 0.55; under CGGCTGAATCGAGCAGGT, 0.93; under ATTTCTCTCGTCCGCAAA, 0.34.
With CTACAGGTTGGCCACTCTGG the figure was 0.33; with AAGGTGCTCTTCCCGCTC, 0.29; with GCTTCCTGTCCATCACTG, 0.71.
Under AGCCAAATGGGAACTCACAG stands 0.74; under CTCGATCGCTCCTCGTGC, at least 1; under CAGCGAGTACGTGACGGT, 0.93.
